Our source for the Ki and Activity values is ChEMBL document CHEMBL1125762, “Synthesis and pharmacological evaluation of 1-(aminomethyl)-3,4-dihydro-5-hydroxy-1H-2-benzopyrans as dopamine D1 selective ligands” (J Med Chem, 1991).

One assay has as its target D(1) dopamine receptor (Carassius auratus, UniProt P35406). Put plainly: In vitro inhibition of dopamine stimulated adenylate cyclase.
In another assay the target is D(1A) dopamine receptor (Rattus norvegicus, UniProt P18901). Put plainly: Binding affinity for dopamine receptor D1.
D(1A) dopamine receptor, sequence (P18901 whole entry): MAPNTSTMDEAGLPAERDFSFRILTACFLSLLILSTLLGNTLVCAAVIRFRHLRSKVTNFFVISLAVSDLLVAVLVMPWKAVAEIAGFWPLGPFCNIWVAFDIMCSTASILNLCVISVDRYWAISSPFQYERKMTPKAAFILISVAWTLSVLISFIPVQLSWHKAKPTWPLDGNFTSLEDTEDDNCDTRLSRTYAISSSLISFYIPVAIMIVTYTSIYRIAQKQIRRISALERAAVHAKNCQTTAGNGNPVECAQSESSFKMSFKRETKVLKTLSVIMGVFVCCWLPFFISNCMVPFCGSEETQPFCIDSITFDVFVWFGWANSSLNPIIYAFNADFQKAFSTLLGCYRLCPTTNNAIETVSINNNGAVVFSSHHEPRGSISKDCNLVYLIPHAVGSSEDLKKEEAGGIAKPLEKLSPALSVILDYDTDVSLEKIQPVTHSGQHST
For the next assay, the target named is D(2) dopamine receptor (Rattus norvegicus, UniProt P61169). Put plainly: Binding affinity for dopamine receptor D2.
D(2) dopamine receptor, sequence (P61169 whole entry): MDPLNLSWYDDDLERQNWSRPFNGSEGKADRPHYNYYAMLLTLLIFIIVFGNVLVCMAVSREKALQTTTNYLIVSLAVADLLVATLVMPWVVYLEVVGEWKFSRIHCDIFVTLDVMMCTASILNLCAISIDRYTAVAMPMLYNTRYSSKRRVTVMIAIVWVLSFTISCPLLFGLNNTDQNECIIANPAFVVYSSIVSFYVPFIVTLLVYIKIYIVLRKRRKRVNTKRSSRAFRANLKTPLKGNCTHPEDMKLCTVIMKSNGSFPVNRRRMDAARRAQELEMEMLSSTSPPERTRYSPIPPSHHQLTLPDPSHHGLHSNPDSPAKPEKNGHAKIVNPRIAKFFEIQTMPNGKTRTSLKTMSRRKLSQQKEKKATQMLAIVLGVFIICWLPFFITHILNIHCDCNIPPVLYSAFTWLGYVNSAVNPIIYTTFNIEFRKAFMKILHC
Assay [1] has as its system Rattus norvegicus. Briefly: Compound was tested for the net contralateral rotations in rats 2 hr after administration of 1.7 umol/kg, predosed with SCH-23390 (0.05 umol/kg sc), 40 min prior to injection of test compound; Activity expressed as net contralateral rotations / 2ho. The assay is classed as functional.
In assay [2] the test system is Rattus norvegicus. Put plainly: Compound was tested for the net contralateral rotations in rats 2 hr after sc administration of 1.7 umol/kg dopamine agonist; Activity expressed as net contralateral rotations / 2 hr. The class given is functional.
In assay [3] the test system is Rattus norvegicus. Put plainly: Compound was tested for the net contralateral rotations in rats, 2 hr after sc administration of 0.43 umol/kg dopamine agonist; Activity expressed as net contralateral rotations / 2 hr. The assay is classed as functional.
The target of assay [4] is T1, 5-hydroxytryptamine receptor 1A (Rattus norvegicus, UniProt P19327).
T1 sequence (P19327 whole entry): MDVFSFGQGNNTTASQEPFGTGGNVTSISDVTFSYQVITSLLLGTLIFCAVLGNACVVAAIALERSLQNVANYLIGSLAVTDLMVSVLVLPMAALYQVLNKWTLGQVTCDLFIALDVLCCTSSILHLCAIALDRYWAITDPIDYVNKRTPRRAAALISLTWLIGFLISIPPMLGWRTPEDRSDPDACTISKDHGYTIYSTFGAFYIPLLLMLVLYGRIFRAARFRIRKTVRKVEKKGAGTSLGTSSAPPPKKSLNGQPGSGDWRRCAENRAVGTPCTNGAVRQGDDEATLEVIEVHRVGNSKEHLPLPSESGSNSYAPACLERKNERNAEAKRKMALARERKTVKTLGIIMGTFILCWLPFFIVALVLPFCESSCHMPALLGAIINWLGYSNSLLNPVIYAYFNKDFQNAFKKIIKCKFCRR
Put plainly: Compound was tested in vitro for binding affinity for 5-hydroxytryptamine 1A receptor.

The target of assay [5] is Serotonin 2 (5-HT2) receptor (Rattus norvegicus, UniProt P30994+P08909+P14842). Briefly: Compound was tested in vitro for binding affinity for 5-hydroxytryptamine 2 receptor. The assay is classed as protein assay.
The target in assay [6] is T2, Adrenergic receptor alpha-1 (Homo sapiens, UniProt P35348+P25100+P35368).
T2 sequence (P35348 whole entry): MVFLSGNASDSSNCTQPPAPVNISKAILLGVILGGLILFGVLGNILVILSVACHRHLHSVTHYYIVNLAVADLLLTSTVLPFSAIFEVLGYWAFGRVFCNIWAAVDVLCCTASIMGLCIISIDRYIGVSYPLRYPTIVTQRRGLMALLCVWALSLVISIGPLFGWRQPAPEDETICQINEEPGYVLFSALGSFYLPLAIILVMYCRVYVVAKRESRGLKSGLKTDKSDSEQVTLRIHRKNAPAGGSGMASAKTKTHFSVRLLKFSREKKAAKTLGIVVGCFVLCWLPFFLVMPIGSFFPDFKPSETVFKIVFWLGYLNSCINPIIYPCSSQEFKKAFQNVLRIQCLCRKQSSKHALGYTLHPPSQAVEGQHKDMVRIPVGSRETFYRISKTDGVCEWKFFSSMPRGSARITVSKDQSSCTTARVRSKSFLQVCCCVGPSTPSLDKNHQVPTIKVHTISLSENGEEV
T2 sequence (P25100 whole entry): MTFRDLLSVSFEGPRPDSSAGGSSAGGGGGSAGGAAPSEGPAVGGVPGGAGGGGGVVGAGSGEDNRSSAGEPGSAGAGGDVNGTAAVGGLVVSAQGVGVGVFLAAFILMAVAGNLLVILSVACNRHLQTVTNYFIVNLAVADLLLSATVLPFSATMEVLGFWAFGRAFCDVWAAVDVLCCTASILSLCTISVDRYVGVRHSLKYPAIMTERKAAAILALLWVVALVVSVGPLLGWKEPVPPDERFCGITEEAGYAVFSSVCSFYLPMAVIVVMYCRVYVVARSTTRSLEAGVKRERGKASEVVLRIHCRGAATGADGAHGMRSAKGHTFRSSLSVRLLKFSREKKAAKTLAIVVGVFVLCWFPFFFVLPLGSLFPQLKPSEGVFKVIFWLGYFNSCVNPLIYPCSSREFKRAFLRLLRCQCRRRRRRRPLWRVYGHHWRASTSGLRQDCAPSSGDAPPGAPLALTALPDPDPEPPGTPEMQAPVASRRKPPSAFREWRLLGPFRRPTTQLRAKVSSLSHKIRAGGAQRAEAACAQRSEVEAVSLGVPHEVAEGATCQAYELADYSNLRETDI
T2 sequence (P35368 whole entry): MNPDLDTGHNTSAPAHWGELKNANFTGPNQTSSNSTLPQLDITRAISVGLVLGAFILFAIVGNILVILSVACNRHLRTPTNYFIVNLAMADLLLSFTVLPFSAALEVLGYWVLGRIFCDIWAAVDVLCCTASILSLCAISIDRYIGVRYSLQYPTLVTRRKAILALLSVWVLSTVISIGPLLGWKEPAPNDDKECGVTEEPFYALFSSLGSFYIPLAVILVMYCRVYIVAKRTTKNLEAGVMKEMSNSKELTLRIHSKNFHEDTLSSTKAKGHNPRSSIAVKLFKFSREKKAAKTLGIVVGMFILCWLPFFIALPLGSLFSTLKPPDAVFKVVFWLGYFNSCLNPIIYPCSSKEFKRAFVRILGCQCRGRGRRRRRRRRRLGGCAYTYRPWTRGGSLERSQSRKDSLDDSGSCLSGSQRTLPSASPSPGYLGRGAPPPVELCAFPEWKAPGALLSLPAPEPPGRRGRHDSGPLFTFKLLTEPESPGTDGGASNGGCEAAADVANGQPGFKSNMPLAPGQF
Briefly: Compound was tested in vitro for binding affinity for alpha-1 adrenergic receptor. The assay is classed as protein assay.

The target of assay [7] is T3, Adrenergic receptor alpha-2 (Homo sapiens, UniProt P08913+P18825+P18089).
T3 sequence (P08913 whole entry): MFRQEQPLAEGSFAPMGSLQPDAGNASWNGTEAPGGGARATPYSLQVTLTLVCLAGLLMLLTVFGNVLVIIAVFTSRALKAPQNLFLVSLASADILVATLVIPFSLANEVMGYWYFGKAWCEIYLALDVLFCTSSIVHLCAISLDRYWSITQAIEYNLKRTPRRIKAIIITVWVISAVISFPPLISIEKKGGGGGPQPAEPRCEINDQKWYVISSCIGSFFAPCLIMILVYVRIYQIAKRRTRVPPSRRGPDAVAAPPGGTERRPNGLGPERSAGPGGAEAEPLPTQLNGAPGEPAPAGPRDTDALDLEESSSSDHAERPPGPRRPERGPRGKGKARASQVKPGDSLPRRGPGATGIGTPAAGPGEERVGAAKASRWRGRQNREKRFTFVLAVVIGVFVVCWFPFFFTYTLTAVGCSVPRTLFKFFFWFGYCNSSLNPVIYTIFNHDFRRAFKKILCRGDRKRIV
T3 sequence (P18825 whole entry): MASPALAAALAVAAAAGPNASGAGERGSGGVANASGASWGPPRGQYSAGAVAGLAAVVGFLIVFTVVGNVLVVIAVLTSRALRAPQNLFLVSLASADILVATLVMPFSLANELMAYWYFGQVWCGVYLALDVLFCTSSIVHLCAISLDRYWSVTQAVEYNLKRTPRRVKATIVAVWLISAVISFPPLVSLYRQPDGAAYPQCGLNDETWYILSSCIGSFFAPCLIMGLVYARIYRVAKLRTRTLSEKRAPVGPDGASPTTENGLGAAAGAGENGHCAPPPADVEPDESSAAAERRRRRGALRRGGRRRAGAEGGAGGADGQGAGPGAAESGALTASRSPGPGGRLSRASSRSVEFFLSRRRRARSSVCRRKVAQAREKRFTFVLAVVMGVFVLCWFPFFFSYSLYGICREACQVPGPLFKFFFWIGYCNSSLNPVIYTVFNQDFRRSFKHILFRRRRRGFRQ
T3 sequence (P18089 whole entry): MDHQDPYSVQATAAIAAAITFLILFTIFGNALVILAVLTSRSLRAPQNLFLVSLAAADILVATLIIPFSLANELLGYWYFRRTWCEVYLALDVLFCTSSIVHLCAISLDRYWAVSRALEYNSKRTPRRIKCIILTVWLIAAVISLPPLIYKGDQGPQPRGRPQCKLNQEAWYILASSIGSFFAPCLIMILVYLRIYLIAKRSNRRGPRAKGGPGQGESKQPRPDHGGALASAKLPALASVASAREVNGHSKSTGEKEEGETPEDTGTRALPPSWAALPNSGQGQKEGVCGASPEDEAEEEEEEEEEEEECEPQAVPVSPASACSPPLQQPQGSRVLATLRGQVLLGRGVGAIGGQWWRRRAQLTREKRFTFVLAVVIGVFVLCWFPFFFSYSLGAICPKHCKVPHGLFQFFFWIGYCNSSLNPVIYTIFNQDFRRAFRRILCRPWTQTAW
Put plainly: Compound was tested in vitro for binding affinity for alpha-2 adrenergic receptor. The assay is classed as protein assay.

The target of assay [8] is Sodium-dependent dopamine transporter (Homo sapiens, UniProt Q01959). Put plainly: In vitro binding affinity for dopamine uptake site.
Sodium-dependent dopamine transporter, sequence (Q01959 whole entry): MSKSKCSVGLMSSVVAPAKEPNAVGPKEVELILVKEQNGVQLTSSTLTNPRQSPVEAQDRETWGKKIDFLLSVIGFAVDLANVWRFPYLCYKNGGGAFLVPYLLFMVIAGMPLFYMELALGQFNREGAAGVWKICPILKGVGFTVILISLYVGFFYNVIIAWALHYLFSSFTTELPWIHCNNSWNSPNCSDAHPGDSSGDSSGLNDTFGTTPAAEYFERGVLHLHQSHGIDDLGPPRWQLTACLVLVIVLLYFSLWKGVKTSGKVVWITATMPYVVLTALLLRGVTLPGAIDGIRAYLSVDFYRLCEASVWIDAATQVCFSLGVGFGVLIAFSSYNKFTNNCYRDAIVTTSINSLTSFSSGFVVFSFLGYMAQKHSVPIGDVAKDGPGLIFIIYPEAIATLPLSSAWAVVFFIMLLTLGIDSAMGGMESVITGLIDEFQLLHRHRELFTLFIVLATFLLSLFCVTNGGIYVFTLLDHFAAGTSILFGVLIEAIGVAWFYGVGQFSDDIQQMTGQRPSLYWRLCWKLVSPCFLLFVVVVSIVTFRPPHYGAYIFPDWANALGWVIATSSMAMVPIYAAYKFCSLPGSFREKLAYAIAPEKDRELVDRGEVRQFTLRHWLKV
Assay [9] concerns Rattus norvegicus. Put plainly: Compound was tested for the net contralateral rotations in rats 2 hr after administration of 0.1 uM/kg dopamine agonist; Activity expressed as net contralateral rotations / 2 hr. The assay is classed as functional.
Assay [10] concerns Rattus norvegicus. Put plainly: Compound was tested for the net contralateral rotations in rats 2 hr after administration of 1 uM/kg dopamine agonist; Activity expressed as net contralateral rotations / 2 hr. The class given is functional.
Assay [11] addresses Beta-2 adrenergic receptor (Canis lupus familiaris, UniProt P54833). Briefly: Compound was tested in vitro for binding affinity for beta receptor.
Assay [12] concerns Rattus norvegicus. Put plainly: Compound was tested for the net contralateral rotations in rats 2 hr after administration of 0.1 umol/kg, predosed with SCH-23390 (0.1 umol/kg sc), 40 min prior to injection of test compound; Activity expressed as net contralateral rotations / 2 hr.

D(1) dopamine receptor, sequence (P35406 whole entry): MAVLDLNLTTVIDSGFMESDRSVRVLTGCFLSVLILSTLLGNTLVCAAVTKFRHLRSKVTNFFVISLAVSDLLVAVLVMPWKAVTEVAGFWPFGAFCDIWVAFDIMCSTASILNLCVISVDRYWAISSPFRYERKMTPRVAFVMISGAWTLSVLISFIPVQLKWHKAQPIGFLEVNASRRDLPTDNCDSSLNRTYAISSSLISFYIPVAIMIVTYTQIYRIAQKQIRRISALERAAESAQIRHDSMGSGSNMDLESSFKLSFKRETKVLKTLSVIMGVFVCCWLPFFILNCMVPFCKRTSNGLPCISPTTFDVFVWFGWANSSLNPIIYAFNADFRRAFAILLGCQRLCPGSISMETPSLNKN
Beta-2 adrenergic receptor, sequence (P54833 whole entry): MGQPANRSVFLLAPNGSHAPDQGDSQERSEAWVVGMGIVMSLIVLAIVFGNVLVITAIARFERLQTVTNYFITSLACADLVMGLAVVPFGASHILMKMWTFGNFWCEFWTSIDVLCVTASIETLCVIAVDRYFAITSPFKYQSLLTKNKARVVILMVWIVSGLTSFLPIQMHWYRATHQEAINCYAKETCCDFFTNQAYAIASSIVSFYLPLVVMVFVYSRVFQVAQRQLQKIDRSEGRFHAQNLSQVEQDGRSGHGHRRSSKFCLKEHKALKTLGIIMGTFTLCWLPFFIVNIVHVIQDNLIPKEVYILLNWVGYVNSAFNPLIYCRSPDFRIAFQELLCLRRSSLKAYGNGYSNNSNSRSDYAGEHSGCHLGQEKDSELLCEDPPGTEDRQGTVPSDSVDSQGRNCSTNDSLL

Consider `NC[C@H]1O[C@H](c2ccccc2)Cc2c1ccc(Br)c2O`, for which the Ki came to 197 nM at D(1) dopamine receptor, 366 nM at D(1A) dopamine receptor and 1960 nM at D(2) dopamine receptor.

As to `CNC[C@@H]1O[C@H](C2CCCCC2)Cc2c1ccc(C)c2O`, the Ki at D(1) dopamine receptor was found to be 121 nM; on D(1A) dopamine receptor, 263 nM; at D(2) dopamine receptor, 4610 nM.

For the molecule `Cc1ccc2c(c1O)C[C@@H](C1CCCCC1)O[C@H]2CN(C)C`, the Ki at D(1) dopamine receptor turned out to be 125 nM; at D(1A) dopamine receptor, 284 nM; at D(2) dopamine receptor, 18000 nM.

`COc1ccc2c(c1O)C[C@@H](c1ccccc1)O[C@H]2CN`: the Ki at D(1) dopamine receptor is 247 nM; at D(1A) dopamine receptor, 166 nM; at D(2) dopamine receptor, > 30000 nM.

On to `Oc1cc2c(cc1O)[C@@H](c1ccccc1)CNCC2` [(R)-SKF-38393], for which the Activity in the assay with Rattus norvegicus [1] was 47; in the assay on Rattus norvegicus [2] it was 608; in the assay with Rattus norvegicus [3], 241.

Take `Cl.NC[C@@H]1O[C@H](c2ccccc2)Cc2c1ccc(Br)c2O`: the Ki in assay [4] was 312 nM; in assay [5] it was 6360 nM; in [6], 1820 nM; on D(1) dopamine receptor it was 32.4 nM; in [7], 360 nM; on D(1A) dopamine receptor, 5.1 nM. Further, the Ki on D(2) dopamine receptor is 569 nM; in assay [8], > 30000 nM; in assay [11], 18400 nM. Further, the results for the Activity in the assay with Rattus norvegicus [9], with Rattus norvegicus [10] and with Rattus norvegicus [12] were 1007, 748 and 151, respectively.

Turning to `CCCNC[C@@H]1O[C@H](C2CCCCC2)Cc2c1ccc(C)c2O`, the Ki on D(1) dopamine receptor was found to be 454 nM; at D(1A) dopamine receptor, 2820 nM; on D(2) dopamine receptor, 2630 nM.

As to `NC[C@@H]1O[C@H](C2CCCCC2)Cc2c1ccc(O)c2O`, the Ki stood at 5.4 nM at D(1A) dopamine receptor and 1120 nM at D(2) dopamine receptor.

In the case of `NC[C@@H]1O[C@H](c2ccccc2)Cc2c(O)cccc21`, the Ki was 52.5 nM at D(1) dopamine receptor, 103 nM on D(1A) dopamine receptor and > 30000 nM on D(2) dopamine receptor.

`Br.Cc1ccc2c(c1O)C[C@@H](C1CCCCC1)O[C@H]2CN`: the Ki in assay [4] was 54.1 nM; in [5], 242 nM; in assay [6], > 30000 nM; on D(1) dopamine receptor, 100 nM; in assay [7] it was 358 nM; at D(1A) dopamine receptor, 86.4 nM. Besides, the Ki at D(2) dopamine receptor is > 30000 nM; in assay [8], 1870 nM; in assay [11], 19200 nM. The Activity came to 227 in the assay on Rattus norvegicus [9], 751 with Rattus norvegicus [10] and 4 in the assay on Rattus norvegicus [12].
